Measurements: patent publication US20160081338A1, “PLANT GROWTH ACCELERATOR” (Nippon Soda Co., Ltd., priority 2012, published 2016)

Key:
[1] = test system: rice seeds (variety: Koshihikari); experiment: Test on acceleration of rice root growth and effect of growing vigourous seedlings; format: in vivo; settings: for Seminal Root Length: paper filter, 25° C.
Experimental: A paper filter was spread in a plastic cup and impregnated with 10 ml of each of the chemical solutions prepared in Example 1 or Comparative Example 1. In non-treatment, water was used in place of the chemical solutions. In treatment plots, 1 replication was provided for each concentration; in the non-treatment plots, 2 replications were provided. Ten rice seeds (variety: Koshihikari) were sown on each plot of the paper filter and cultivated in a growth chamber at 25° C., and the length of roots was measured after 5 and 7 days. The average of measured values excluding the maximum and minimum values was calculated. The ratio (%) of the average value in each treatment plot to the average value in the non-treatment plots was calculated.

[2] = test system: cucumber (Variety:Sagamihanjiro-fushinari); experiment: Test on acceleration of growth of aboveground/underground part of cucumber and effect of growing vigourous seedlings; format: in vivo; settings: after 7 days, dilution 708, active ingredient 250 ppm
Experimental: Seedling-raising culture soil for gardening was placed in a 12 -cm-by-20 -cm plastic pot 10 cm in depth, and 5 seeds of cucumber (Variety:Sagamihanjiro-fushinari) were sown in the soil. Thereinto was uniformly irrigated 500 ml of each chemical solution prepared in Example 1 or Comparative Example 1. Water was used in place of each chemical solution in the non-treatment plots. Each plot has 3 replications. The above-ground and underground parts of the seedlings germinated and grown after 7 days were measured for length. The ratio (%) of the average value in each treatment plot to the average value in the non-treatment plot was calculated.

[3] = After 5 Days, dilution 708, active ingredient 250 ppm
[4] = After 5 Days, dilution 2832, active ingredient 62.5 ppm
[5] = After 5 Days, dilution 11328, active ingredient 15.6 ppm
[6] = After 7 Days, dilution 2832, active ingredient 62.5 ppm
[7] = After 7 Days, dilution 11328, active ingredient 15.6 ppm

In the case of Cc1c(Br)c2ccc(F)cc2n1S(=O)(=O)c1ncn(S(=O)(=O)N(C)C)n1 [Amisulbrom, 3-(3-bromo-6-fluoro-2-methylindol-1-ylsulfonyl)-N,N-dimethyl-1H-1,2,4-triazole-1-sulfonamide], the “Seminal Root Length To Non-treatment” value [1, 3] is reported as 120%, the “Seminal Root Length” value [1, 3] is reported as 2.46 cm and the “Seminal Root Length To Non-treatment” value [1, 4] is reported as 139%. For the same compound, the “Seminal Root Length” value [1, 4] was 2.85 cm, the “Seminal Root Length To Non-treatment” value [1, 5] was 129% and the “Seminal Root Length” value [1, 5] was 2.65 cm. For the same compound, the “Seminal Root Length” value ([1]; After 7 Days, dilution 708, active ingredient 250 ppm) was 2.91 cm, the “Seminal Root Length To Non-treatment” value [1, 6] was 176% and the “Seminal Root Length” value [1, 6] was 4.04 cm. The “Seminal Root Length To Non-treatment” value [1, 7] was 154%, the “Seminal Root Length” value [1, 7] was 3.53 cm and the “Seminal Root Length To Non-treatment” value ([1]; after 7 days, dilution 708, active ingredient 250 ppm) was 127%. For the same compound, the “Above-ground Part Length To Non-treatment” value [2] was 108%, the “Under-ground Part Length To Non-treatment” value [2] was 117% and the “Above-ground Part Length” value ([2]; 500 ml irrigated into soil) was 2.2 cm. For the same compound, the “Under-ground Part Length” value ([2]; 500 ml irrigated into soil) was 4.3 cm.
